According to patent publication US8148391B2 (Cephalon, Inc., priority 2006, dated 2012):
Where two headings read alike, the source gives them in different places.

How the values were obtained:
[1] = target: T1, baculovirus-expressed ALK (Homo sapiens, UniProt Q9UM73); assay: ALK Kinase Assay (ELISA-type, time-resolved fluorescence); assay type: biochemical
T1 construct: host or cells: baculovirus expression system
Method in brief: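 Substrate coating: phospholipase C-γ, 10 μg/mL in TBS. Kinase step: 30 ng/ml ALK, 15 min, 37° C. Detection and analysis: Eu-N1 PT66 antibody, with IC50 fitted as a sigmoidal variable-slope dose-response curve.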

[2] = target: T2, c-Met (cytoplasmic domain) (Homo sapiens, UniProt P08581); assay: c-Met Kinase Assay (same methods as for ALK, with modifications); assay type: biochemical
T2 construct: 10 ng/mL c-Met (cytoplasmic domain, Invitrogen Corporation #PV3143); purchased Invitrogen Corporation PV3143
T2 sequence (P08581 956-1390 limits assumed): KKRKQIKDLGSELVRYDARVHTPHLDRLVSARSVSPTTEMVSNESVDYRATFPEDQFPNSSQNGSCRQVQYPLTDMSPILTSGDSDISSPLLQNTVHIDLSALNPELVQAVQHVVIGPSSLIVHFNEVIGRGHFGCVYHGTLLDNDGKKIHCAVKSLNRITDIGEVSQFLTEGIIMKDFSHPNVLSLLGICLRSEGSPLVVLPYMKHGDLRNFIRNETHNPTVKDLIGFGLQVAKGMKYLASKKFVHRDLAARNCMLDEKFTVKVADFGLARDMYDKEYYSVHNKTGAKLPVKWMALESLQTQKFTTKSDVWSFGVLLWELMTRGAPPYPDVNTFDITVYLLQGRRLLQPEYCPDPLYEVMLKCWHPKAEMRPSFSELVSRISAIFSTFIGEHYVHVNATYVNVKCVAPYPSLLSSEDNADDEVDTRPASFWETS
Method in brief: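 This plate-based kinase format uses immobilized phospholipase C-γ as substrate, phosphorylated by c-Met cytoplasmic domain (10 ng/mL) at 37° C for 15 minutes.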

[3] = 1 μM ATP (Km level), read-out: ALK Activity (ALK Kinase Inhibition, IC50)
[4] = 1 μM ATP (Km level), read-out: cMet Activity (c-Met Kinase Inhibition, IC50)
[5] = ALK kinase inhibition, 1 μM ATP, read-out: ALK Activity
[6] = c-Met kinase inhibition, 1 μM ATP, read-out: cMet Activity
[7] = ALK kinase inhibition, 1 μM ATP (Km level), read-out: ALK Activity
[8] = c-Met kinase inhibition, 1 μM ATP (Km level), read-out: cMet Activity
[9] = 1 μM ATP (Km level), 30 ng/ml ALK, 37° C., 15 minutes, read-out: ALK Activity (ALK kinase inhibition, IC50 class)
[10] = 1 μM ATP (Km level), 10 ng/mL c-Met, read-out: cMet Activity (c-Met kinase inhibition, IC50 class)

T1 sequence (Q9UM73 19-1620): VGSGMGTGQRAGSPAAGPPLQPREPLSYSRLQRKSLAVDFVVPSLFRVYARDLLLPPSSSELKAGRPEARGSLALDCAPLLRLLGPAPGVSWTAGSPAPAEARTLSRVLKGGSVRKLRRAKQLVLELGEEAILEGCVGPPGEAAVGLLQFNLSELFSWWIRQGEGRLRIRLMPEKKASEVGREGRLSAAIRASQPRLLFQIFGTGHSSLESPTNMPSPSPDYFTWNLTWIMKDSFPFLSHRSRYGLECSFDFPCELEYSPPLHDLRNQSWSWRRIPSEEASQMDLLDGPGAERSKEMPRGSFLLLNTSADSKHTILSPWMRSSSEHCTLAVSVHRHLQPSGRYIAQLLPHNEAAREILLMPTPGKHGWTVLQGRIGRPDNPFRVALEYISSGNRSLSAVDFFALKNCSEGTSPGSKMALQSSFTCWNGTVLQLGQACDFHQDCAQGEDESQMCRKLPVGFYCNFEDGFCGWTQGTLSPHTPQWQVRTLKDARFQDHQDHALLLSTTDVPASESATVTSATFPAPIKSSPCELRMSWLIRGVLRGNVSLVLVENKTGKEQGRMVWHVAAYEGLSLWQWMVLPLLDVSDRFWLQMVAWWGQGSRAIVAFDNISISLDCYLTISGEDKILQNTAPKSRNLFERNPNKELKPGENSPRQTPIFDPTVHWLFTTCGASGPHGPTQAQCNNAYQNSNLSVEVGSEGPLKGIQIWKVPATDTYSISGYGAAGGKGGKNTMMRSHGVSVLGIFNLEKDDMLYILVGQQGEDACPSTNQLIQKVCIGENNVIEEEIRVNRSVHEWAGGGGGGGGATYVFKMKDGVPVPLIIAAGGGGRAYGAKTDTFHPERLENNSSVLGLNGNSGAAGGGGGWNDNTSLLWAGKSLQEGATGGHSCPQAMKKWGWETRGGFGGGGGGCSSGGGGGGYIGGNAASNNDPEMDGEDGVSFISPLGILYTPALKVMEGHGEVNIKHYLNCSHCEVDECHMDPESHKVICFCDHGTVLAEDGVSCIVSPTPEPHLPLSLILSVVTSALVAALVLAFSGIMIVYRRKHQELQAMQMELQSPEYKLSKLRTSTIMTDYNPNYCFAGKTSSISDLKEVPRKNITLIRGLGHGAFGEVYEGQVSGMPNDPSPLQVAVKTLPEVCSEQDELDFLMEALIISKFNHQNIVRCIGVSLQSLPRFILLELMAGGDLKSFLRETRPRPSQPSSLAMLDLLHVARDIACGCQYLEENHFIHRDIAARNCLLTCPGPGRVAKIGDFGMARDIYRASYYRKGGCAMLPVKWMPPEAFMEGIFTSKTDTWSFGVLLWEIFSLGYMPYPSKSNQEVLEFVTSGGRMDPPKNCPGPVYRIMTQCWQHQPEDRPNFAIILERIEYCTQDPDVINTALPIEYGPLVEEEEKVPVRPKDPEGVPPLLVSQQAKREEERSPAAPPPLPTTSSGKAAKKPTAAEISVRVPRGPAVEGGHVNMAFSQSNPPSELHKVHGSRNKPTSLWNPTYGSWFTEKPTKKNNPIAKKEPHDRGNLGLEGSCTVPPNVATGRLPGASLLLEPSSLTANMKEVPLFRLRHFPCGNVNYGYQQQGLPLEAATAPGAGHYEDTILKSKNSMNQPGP

Row | Molecule | IC50 [1, 5] [nM] | IC50 [2, 6] [nM] | other results
1 | COc1cc2c(cc1Nc1ncc(Cl)c(Nc3ccc(Cl)cc3S(=O)(=O)N(C)C)n1)CCN(CC(=O)N1CCOCC1)CC2 [Example 841, 5-Chloro-2-{5-chloro-2-[8-methoxy-3-(2-morpholin-4-yl-2-oxo-ethyl)-2,3,4,5-tetrahydro-1H-benzo[d]azepin-7-ylamino]-pyrimidin-4-ylamino}-N,N-dimethyl-benzenesulfonamide] | – | – | IC50 [1, 3]: < 100 nM; IC50 [2, 4]: > 10000 nM
2 | CN1CCN(C2CCN(C3CCc4ccc(Nc5ncc(Cl)c(N[C@H]6[C@@H](C(N)=O)[C@@H]7C=C[C@H]6C7)n5)cc4CC3)CC2)CC1 (stereo partly drawn) [Example 887, (1S,2S,3R,4R)-3-(5-Chloro-2-{7-[4-(4-methyl-piperazin-1-yl)-piperidin-1-yl]-6,7,8,9-tetrahydro-5H-benzocyclohepten-2-ylamino}-pyrimidin-4-ylamino)-bicyclo[2.2.1]hept-5-ene-2-carboxylic acid amide] | – | – | IC50 [1, 3]: < 100 nM; IC50 [2, 4]: 100 to 1000 nM
3 | COc1c(Nc2ncc(Cl)c(N[C@H]3[C@@H](C(N)=O)[C@@H]4C=C[C@H]3C4)n2)ccc2c1CCC(N1CCCC(O)C1)CC2 (stereo partly drawn) [Example 910, (1S,2S,3R,4R)-3-{5-Chloro-2-[7-(3-hydroxy-piperidin-1-yl)-1-methoxy-6,7,8,9-tetrahydro-5H-benzocyclohepten-2-ylamino]-pyrimidin-4-ylamino}-bicyclo[2.2.1]hept-5-ene-2-carboxylic acid amide] | – | – | IC50 [1, 3]: < 100 nM; IC50 [2, 4]: > 10000 nM
4 | COc1cc(N2CCOCC2)ccc1Nc1nc(Nc2ccc3c(c2OC)CCCC(=O)N3)ncc1Cl [Example 140, 7-[5-Chloro-4-(2-methoxy-4-morpholin-4-yl-phenylamino)-pyrimidin-2-ylamino]-6-methoxy-1,3,4,5-tetrahydro-benzo[b]azepin-2-one] | – | – | IC50 [1, 7]: < 100 nM; IC50 [2, 8]: > 10000 nM
5 | COc1cc2c(cc1Nc1ncc(Cl)c(Nc3ccccc3S(=O)(=O)N3CCC(O)C3)n1)CCNC(=O)C2 (stereo not drawn) [Example 1193, 7-{5-Chloro-4-[2-(3-hydroxy-pyrrolidine-1-sulfonyl)-phenylamino]-pyrimidin-2-ylamino}-8-methoxy-1,3,4,5-tetrahydro-benzo[d]azepin-2-one] | – | – | IC50 [1, 9]: < 100 nM; IC50 [2, 10]: 100 to 1000 nM
6 | C#CCNC(=O)c1cccc(F)c1Nc1nc(Nc2ccc3c(c2)OCCCN3CCN2CCCC2)ncc1Cl [Example 1719, 2-{5-Chloro-2-[9-(2-pyrrolidin-1-yl-ethyl)-6,7,8,9-tetrahydro-5-oxa-9-aza-benzocyclohepten-3-ylamino]-pyrimidin-4-ylamino}-3-fluoro-N-prop-2-ynyl-benzamide] | < 100 | < 100 | –
7 | CC1(C)NC(=O)CCc2ccc(Nc3ncc(Cl)c(NC4C5C=CC(C5)C4C(N)=O)n3)cc21 (stereo not drawn) [Example 1832, 3-(5-Chloro-2-(1,1-dimethyl-3-oxo-2,3,4,5-tetrahydro-1H-benzo[c]azepin-8-ylamino)pyrimidin-4-ylamino)bicyclo[2.2.1]hept-5-ene-2-carboxamide] | < 100 | < 100 | –
8 | COCCN1CCc2ccc(Nc3ncc(Cl)c(Nc4ccccc4S(=O)(=O)N(C)C)n3)cc2CC1 [Example 1686, 2-{5-Chloro-2-[3-(2-methoxy-ethyl)-2,3,4,5-tetrahydro-1H-benzo[d]azepin-7-ylamino]-pyrimidin-4-ylamino}-N,N-dimethyl-benzenesulfonamide] | < 100 | 100 to 1000 | –
9 | COc1cc2c(cc1Nc1ncc(Cl)c(Nc3ccccc3S(=O)(=O)C(C)C)n1)CCC(NCCO)CC2 (stereo not drawn) [Example 1090, 2-(2-{5-Chloro-4-[2-(propane-2-sulfonyl)-phenylamino]-pyrimidin-2-ylamino}-3-methoxy-6,7,8,9-tetrahydro-5H-benzocyclohepten-7-ylamino)-ethanol] | – | – | IC50 [1, 9]: < 100 nM; IC50 [2, 10]: 1000 to 10000 nM
10 | 5-Chloro-N*2*-[1-methoxy-7-(2,2,2-trifluoro-ethylamino)-6,7,8,9-tetrahydro-5H-benzocyclohepten-2-yl]-N*4*-methyl-N*4*-[2-(propane-2-sulfonyl)-phenyl]-pyrimidine-2,4-diamine [Example 680] | – | – | IC50 [1, 3]: < 100 nM; IC50 [2, 4]: > 10000 nM
11 | CCN1C(=O)CN(S(C)(=O)=O)Cc2ccc(Nc3ncc(Cl)c(Nc4ccsc4C(=O)NC)n3)cc21 [Example 1872, 3-[5-Chloro-2-(1-ethyl-4-methanesulfonyl-2-oxo-2,3,4,5-tetrahydro-1H-benzo[e][1,4]diazepin-8-ylamino)-pyrimidin-4-ylamino]-thiophene-2-carboxylic acid methylamide] | 1000 to 10000 | 1000 to 10000 | –
12 | CNC(=O)c1cc(Cl)cc(Cl)c1Nc1nc(Nc2ccc3c(c2)CCN(CCOC)CC3)ncc1Cl [Example 314, 3,5-Dichloro-2-{5-chloro-2-[3-(2-methoxy-ethyl)-2,3,4,5-tetrahydro-1H-benzo[d]azepin-7-ylamino]-pyrimidin-4-ylamino}-N-methyl-benzamide] | – | – | IC50 [1, 7]: 100 to 1000 nM; IC50 [2, 8]: < 100 nM
13 | COc1cccnc1-c1ccccc1Nc1nc(Nc2ccc3c(c2)CCC(O)CC3)ncc1Cl (stereo not drawn) [Example 1019, 2-{5-Chloro-4-[2-(3-methoxy-pyridin-2-yl)-phenylamino]-pyrimidin-2-ylamino}-6,7,8,9-tetrahydro-5H-benzocyclohepten-7-ol] | – | – | IC50 [1, 9]: 100 to 1000 nM; IC50 [2, 10]: 100 to 1000 nM
14 | CNC(=O)c1sccc1Nc1nc(Nc2ccc3c(c2)CCOC(=O)N3C)ncc1Cl [Example 1747, 3-[5-Chloro-2-(5-methyl-6-oxo-5,6,8,9-tetrahydro-7-oxa-5-aza-benzocyclohepten-2-ylamino)-pyrimidin-4-ylamino]-thiophene-2-carboxylic acid methylamide] | 100 to 1000 | < 100 | –
15 | COCCN1CCN(C)c2ccc(Nc3ncc(Cl)c(Nc4ccccc4NS(C)(=O)=O)n3)cc2C1 [Example 429, N-(2-{5-Chloro-2-[4-(2-methoxy-ethyl)-1-methyl-2,3,4,5-tetrahydro-1H-benzo[e][1,4]diazepin-7-ylamino]-pyrimidin-4-ylamino}-phenyl)-methanesulfonamide] | – | – | IC50 [1, 7]: < 100 nM; IC50 [2, 8]: 100 to 1000 nM
16 | COCCOc1ccccc1Nc1nc(Nc2ccc3c(c2)CCOC(=O)N3C)ncc1Cl [Example 1777, 2-{5-Chloro-4-[2-(2-methoxy-ethoxy)-phenylamino]-pyrimidin-2-ylamino}-5-methyl-8,9-dihydro-5H-7-oxa-5-aza-benzocyclohepten-6-one] | 100 to 1000 | 100 to 1000 | –
17 | COc1ccc(Nc2ncc(Cl)c(N[C@H]3[C@@H](C(N)=O)[C@@H]4C=C[C@H]3C4)n2)c2c1CCCC(N1CCOCC1)C2 (single isomer, unassigned) [Example 942] | – | – | IC50 [1, 3]: 1000 to 10000 nM; IC50 [2, 4]: > 10000 nM

Now from value to molecule, other results behind:

Row | IC50 [1, 5] [nM] | IC50 [2, 6] [nM] | Molecule | other results
18 | 100 to 1000 | 1000 to 10000 | CNC(=O)c1ccc2c(c1Nc1nc(Nc3ccc4c(c3)NC(=O)CCC4)ncc1Cl)OCO2 [Example 1482, 4-[5-Chloro-2-(2-oxo-2,3,4,5-tetrahydro-1H-benzo[b]azepin-8-ylamino)-pyrimidin-4-ylamino]-benzo[1,3]dioxole-5-carboxylic acid methylamide] | –
19 | 100 to 1000 | < 100 | CNC(=O)c1cccc(F)c1Nc1nc(Nc2ccc3c(c2)NC(=O)CN(CCC(F)(F)F)C3)ncc1Cl [Example 1861, 2-{5-Chloro-2-[2-oxo-4-(3,3,3-trifluoro-propyl)-2,3,4,5-tetrahydro-1H-benzo[e][1,4]diazepin-8-ylamino]-pyrimidin-4-ylamino}-3-fluoro-N-methyl-benzamide] | –
20 | 100 to 1000 | > 10000 | CCN1CCCC(C)(C)c2ccc(Nc3ncc(Cl)c(Nc4ccc(N5CCOCC5)cc4OC)n3)cc21 [Example 1635, 5-Chloro-N*2*-(1-ethyl-5,5-dimethyl-2,3,4,5-tetrahydro-1H-benzo[b]azepin-8-yl)-N*4*-(2-methoxy-4-morpholin-4-yl-phenyl)-pyrimidine-2,4-diamine] | –
21 | 100 to 1000 | 100 to 1000 | CNC(=O)c1cnn(C)c1Nc1nc(Nc2ccc3c(c2)CC(=O)N(C)CC3)ncc1Cl [Example 1821, 5-[5-Chloro-2-(3-methyl-4-oxo-2,3,4,5-tetrahydro-1H-benzo[d]azepin-7-ylamino)-pyrimidin-4-ylamino]-1-methyl-1H-pyrazole-4-carboxylic acid methylamide] | –
22 | < 100 | 100 to 1000 | CN1C(=O)OCCc2cc(Nc3ncc(Cl)c(Nc4ccccc4-c4nccn4C)n3)ccc21 [Example 1749, 2-{5-chloro-4-[2-(1-methyl-1H-imidazol-2-yl)-phenylamino]-pyrimidin-2-ylamino}-5-methyl-8,9-dihydro-5H-7-oxa-5-aza-benzocyclohepten-6-one] | –
23 | < 100 | 100 to 1000 | COCCOc1cccc(F)c1Nc1nc(Nc2ccc3c(c2)CCN(CCOC)CC3)ncc1Cl [Example 1696, 5-Chloro-N*4*-[2-fluoro-6-(2-methoxy-ethoxy)-phenyl]-N*2*-[3-(2-methoxy-ethyl)-2,3,4,5-tetrahydro-1H-benzo[d]azepin-7-yl]-pyrimidine-2,4-diamine] | –
24 | 100 to 1000 | < 100 | CCN1C(=O)C(NC(C)=O)CC(C)(C)c2ccc(Nc3ncc(Cl)c(Nc4c(F)cccc4C(=O)NC)n3)cc21 (stereo not drawn) [Example 1643, 2-[2-(3-Acetylamino-1-ethyl-5,5-dimethyl-2-oxo-2,3,4,5-tetrahydro-1H-benzo[b]azepin-8-ylamino)-5-chloro-pyrimidin-4-ylamino]-3-fluoro-N-methyl-benzamide] | –
